Molecules are shown by their SMILES.

This note sets out measurements from ChEMBL document CHEMBL3600363, “Discovery of potent, selective small molecule inhibitors of α-subtype of type III phosphatidylinositol-4-kinase (PI4KIIIα)” (Bioorg Med Chem Lett, 2015).

Experiment [1] deals with Phosphatidylinositol 4-kinase alpha (Homo sapiens, UniProt P42356). The experiment is described as follows: Inhibition of N-terminal FLAG-tagged human full length recombinant PI4K3alpha using D-myo-phosphatidylinositol substrate and ATP incubated for 45 mins by ADP-Glo kinase Assay. In general terms: ADP-Glo first removes unused ATP, then detects ADP through luciferase.

For experiment [2], the target named is Phosphatidylinositol 4-kinase beta (Homo sapiens, UniProt Q9UBF8). Description: Inhibition of N-terminal GST-tagged human full length recombinant PI4K3beta expressed in Sf9 cells using D-myo-phosphatidylinositol substrate and ATP incubated for 45 mins by ADP-Glo kinase Assay.
Experiment [3] deals with Phosphatidylinositol 4,5-bisphosphate 3-kinase catalytic subunit alpha isoform (Homo sapiens, UniProt P42336). Description: Inhibition of PI3Kalpha (unknown origin) pre-incubated for 20 mins before phosphatidylinositol 4, 5-bisphosphate substrate addition by kinase-glo plus luminescence assay.
Experiment [4] deals with Phosphatidylinositol 4,5-bisphosphate 3-kinase catalytic subunit beta isoform (Homo sapiens, UniProt P42338). The experiment is described as follows: Inhibition of PI3Kbeta (unknown origin) pre-incubated for 20 mins before phosphatidylinositol 4, 5-bisphosphate substrate addition by kinase-glo plus luminescence assay. On the technique in general: Kinase-Glo measures the ATP left after a reaction by luminescence.

Experiment [5] deals with Phosphatidylinositol 4,5-bisphosphate 3-kinase catalytic subunit gamma isoform (Homo sapiens, UniProt P48736). The experiment is described as follows: Inhibition of PI3Kgamma (unknown origin) pre-incubated for 20 mins before phosphatidylinositol 4, 5-bisphosphate substrate addition by kinase-glo plus luminescence assay.
Experiment [6] addresses T1, Phosphatidylinositol 4,5-bisphosphate 3-kinase catalytic subunit delta isoform (Homo sapiens, UniProt O00329).
T1 sequence (O00329 whole entry): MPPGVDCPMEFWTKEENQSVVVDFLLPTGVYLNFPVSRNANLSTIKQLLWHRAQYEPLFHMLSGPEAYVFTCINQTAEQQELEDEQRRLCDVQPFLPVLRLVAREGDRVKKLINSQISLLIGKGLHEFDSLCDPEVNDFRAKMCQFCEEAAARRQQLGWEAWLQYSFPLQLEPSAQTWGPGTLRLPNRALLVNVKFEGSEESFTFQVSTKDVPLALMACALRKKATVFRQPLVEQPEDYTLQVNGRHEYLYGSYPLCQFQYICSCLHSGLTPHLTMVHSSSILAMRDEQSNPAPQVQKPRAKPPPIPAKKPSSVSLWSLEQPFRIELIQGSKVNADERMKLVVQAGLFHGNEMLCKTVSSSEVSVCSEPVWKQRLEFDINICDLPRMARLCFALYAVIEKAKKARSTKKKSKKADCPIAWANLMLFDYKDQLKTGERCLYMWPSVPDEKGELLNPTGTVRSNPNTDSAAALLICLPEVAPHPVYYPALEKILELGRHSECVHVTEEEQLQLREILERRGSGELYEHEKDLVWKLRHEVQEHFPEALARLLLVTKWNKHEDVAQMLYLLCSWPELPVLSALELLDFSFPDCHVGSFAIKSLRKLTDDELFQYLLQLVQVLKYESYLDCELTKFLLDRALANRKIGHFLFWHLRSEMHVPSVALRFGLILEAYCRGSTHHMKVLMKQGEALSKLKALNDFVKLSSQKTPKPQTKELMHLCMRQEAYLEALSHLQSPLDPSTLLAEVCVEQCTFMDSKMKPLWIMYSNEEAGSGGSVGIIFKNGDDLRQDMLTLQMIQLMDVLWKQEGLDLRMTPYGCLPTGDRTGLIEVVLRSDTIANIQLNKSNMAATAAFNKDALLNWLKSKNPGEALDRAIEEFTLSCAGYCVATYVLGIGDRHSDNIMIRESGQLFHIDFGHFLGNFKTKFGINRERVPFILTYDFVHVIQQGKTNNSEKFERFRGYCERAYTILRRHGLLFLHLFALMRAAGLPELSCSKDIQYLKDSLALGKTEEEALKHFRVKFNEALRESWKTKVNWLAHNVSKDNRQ
Description: Inhibition of PI3Kdelta (unknown origin) pre-incubated for 20 mins before phosphatidylinositol 4, 5-bisphosphate substrate addition by kinase-glo plus luminescence assay.

Experiment [7] deals with Phosphatidylinositol 4-phosphate 5-kinase type-1 gamma (Homo sapiens, UniProt O60331). The experiment is described as follows: Inhibition of PIP5K1C (unknown origin) using D-myo-phosphatidylinositol 4-phosphate substrate and ATP by ADP-Glo kinase Assay.
Experiment [8] is described as follows: Inhibition of PI4K3alpha in mouse NIH3T3 cells co-expressing PDGFRbeta receptor assessed as inhibition of PDGF-induced IP1 accumulation incubated for 30 mins by HTRF based assay. It is filed as cell-based. The settings on record: NIH3T3, 0.5 h. A general note: TR-FRET usually uses a lanthanide donor and a delayed reading to cut background.

Chain of Phosphatidylinositol 4,5-bisphosphate 3-kinase catalytic subunit beta isoform (P42338 whole entry, canonical isoform): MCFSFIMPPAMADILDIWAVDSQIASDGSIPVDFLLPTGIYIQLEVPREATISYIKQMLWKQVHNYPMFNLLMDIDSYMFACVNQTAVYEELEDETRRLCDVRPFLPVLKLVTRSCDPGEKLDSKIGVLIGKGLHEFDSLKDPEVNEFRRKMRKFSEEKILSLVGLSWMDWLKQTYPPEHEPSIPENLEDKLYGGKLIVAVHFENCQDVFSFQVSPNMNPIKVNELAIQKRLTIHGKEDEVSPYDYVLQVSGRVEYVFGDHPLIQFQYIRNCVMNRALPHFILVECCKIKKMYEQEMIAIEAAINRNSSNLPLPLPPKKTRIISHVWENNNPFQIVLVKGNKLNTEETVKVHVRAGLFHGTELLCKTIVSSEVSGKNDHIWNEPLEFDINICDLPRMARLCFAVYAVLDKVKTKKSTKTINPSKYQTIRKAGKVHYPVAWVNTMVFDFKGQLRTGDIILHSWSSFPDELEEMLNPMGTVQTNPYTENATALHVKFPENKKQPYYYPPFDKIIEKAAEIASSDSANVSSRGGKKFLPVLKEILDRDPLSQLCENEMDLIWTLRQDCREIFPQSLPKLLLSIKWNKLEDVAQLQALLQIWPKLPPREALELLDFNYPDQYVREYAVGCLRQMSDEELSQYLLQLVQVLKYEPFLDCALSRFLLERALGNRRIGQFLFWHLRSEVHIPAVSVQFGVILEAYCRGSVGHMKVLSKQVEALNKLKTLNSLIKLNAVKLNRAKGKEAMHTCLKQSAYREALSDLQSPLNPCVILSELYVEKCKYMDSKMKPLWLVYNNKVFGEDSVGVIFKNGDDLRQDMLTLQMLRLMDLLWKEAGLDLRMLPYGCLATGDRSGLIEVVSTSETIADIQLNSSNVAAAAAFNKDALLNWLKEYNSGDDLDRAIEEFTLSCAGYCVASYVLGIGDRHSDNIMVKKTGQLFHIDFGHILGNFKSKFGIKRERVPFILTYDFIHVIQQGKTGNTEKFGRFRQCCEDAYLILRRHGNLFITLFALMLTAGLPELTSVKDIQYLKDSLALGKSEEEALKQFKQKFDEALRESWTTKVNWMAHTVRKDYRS
Chain of Phosphatidylinositol 4-phosphate 5-kinase type-1 gamma (O60331 whole entry): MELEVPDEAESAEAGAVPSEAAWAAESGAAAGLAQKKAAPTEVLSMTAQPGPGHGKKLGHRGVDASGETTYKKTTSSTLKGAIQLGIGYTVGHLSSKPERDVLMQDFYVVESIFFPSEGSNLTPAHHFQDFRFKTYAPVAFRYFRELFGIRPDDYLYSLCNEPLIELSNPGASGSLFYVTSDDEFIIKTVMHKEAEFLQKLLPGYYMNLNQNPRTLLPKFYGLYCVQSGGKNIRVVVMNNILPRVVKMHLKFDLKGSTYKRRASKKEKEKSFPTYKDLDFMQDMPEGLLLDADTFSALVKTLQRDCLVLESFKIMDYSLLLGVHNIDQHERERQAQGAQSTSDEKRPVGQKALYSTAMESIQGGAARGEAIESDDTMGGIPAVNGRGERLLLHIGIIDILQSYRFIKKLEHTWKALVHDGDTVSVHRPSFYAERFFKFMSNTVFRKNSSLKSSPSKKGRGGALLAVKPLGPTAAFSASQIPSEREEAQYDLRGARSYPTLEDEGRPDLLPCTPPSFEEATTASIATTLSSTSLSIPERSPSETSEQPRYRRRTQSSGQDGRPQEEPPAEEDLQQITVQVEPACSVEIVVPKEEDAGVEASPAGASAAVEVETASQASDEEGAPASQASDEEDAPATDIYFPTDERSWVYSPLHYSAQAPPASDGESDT
Chain of Phosphatidylinositol 4-kinase beta (Q9UBF8 whole entry, canonical isoform): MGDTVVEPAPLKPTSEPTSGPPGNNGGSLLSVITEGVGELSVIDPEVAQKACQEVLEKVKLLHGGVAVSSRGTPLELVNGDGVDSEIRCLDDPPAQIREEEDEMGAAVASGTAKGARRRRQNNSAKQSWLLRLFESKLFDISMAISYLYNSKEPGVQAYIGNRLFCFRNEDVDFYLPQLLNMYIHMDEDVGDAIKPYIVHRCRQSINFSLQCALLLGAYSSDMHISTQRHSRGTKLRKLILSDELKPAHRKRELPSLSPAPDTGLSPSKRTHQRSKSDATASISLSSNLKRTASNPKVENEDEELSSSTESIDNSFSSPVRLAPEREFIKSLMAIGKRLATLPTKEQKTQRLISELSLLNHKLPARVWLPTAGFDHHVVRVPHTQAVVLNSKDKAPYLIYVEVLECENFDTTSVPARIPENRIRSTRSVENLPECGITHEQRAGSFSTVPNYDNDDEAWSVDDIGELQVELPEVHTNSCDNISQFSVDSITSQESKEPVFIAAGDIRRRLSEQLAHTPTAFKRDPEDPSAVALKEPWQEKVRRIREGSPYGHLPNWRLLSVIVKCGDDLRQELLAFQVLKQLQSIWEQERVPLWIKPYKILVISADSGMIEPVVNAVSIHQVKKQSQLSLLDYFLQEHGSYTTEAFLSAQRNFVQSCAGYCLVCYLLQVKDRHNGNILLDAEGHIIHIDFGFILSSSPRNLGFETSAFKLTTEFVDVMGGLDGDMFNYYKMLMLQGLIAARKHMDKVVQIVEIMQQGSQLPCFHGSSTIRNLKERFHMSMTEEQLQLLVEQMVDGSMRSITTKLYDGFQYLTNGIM
Chain of Phosphatidylinositol 4-kinase alpha (P42356 whole entry): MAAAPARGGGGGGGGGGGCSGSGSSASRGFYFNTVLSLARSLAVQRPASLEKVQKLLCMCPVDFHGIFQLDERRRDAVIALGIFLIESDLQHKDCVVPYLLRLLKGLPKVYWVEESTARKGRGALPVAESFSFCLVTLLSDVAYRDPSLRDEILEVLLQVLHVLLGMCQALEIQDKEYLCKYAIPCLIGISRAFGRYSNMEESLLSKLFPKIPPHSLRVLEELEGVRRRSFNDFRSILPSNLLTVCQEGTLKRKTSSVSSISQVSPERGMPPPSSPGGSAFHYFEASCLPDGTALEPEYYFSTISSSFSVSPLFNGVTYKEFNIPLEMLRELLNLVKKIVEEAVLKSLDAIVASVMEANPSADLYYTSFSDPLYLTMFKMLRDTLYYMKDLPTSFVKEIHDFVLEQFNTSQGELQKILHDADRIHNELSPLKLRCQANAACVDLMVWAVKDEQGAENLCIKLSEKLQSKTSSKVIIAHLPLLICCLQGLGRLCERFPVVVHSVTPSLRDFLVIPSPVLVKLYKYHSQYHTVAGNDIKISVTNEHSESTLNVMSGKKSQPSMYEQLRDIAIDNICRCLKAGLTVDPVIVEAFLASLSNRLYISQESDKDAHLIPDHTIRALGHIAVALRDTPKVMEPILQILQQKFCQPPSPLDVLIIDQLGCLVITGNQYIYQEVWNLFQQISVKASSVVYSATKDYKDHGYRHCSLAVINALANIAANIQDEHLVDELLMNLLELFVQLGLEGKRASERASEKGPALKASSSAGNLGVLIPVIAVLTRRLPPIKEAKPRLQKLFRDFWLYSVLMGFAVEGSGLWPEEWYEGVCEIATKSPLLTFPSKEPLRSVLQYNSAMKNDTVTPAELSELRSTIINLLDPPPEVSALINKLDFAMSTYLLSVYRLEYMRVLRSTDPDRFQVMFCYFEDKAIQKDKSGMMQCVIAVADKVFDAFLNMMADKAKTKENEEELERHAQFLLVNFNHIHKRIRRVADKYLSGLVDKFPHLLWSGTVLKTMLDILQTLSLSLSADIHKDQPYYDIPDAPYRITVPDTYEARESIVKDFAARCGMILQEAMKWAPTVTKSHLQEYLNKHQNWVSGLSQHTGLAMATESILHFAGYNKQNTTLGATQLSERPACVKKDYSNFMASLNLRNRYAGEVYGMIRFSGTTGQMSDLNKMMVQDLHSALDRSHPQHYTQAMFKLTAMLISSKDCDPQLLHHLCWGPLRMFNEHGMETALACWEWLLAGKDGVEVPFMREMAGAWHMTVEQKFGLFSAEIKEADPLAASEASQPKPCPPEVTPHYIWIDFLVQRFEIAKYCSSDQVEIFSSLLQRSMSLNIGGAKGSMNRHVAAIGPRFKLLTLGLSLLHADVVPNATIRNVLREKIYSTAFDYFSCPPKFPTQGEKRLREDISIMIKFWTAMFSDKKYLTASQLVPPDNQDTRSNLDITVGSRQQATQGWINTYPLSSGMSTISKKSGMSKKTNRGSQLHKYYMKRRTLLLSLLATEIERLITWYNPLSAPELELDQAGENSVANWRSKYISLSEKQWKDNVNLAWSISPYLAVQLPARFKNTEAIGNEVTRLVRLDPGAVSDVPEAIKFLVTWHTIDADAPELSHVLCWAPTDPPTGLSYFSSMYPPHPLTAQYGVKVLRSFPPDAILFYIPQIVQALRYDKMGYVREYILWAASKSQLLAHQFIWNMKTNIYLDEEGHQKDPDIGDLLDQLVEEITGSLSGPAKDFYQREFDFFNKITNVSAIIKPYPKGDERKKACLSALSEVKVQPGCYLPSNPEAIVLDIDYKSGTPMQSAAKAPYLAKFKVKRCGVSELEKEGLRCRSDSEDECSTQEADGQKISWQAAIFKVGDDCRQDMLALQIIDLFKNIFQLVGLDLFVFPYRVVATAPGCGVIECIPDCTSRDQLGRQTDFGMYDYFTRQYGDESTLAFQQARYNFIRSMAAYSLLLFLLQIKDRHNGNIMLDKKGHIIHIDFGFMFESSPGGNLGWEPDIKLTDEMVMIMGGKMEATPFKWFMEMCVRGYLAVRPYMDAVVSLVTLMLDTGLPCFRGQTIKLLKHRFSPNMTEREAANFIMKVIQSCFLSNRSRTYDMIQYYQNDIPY

With `CCOc1ccc(-c2ccc3nc(N)sc3c2)cn1`, the IC50 in experiment [1] was 0.158 µM; in experiment [2] it was 0.631 µM; in experiment [3] it was 1.58 µM; in experiment [4] it was 6.31 µM; in experiment [5], 2 µM; in experiment [6], 3.98 µM. Besides, in experiment [7], the IC50 was over 100 µM.
With `CCSc1ccc(-c2ccc3nc(N)sc3c2)cn1`, the IC50 in experiment [1] is 0.1 µM; in experiment [2], 0.631 µM; in experiment [3], 1.26 µM; in experiment [4], 5.01 µM; in experiment [5], 1 µM; in experiment [6], 2 µM. The molecule further gave a half-inhibitory concentration (IC50) in experiment [7] of over 100 µM.
In the case of `CNCc1ccc(-c2ccc3nc(N)sc3c2)cn1`, the 50% inhibitory concentration (IC50) was 2.51 µM in experiment [1]; 3.16 µM in experiment [2]; 63.1 µM in experiment [3]; 79.4 µM in experiment [4]; 50.1 µM in experiment [5]; 63.1 µM in experiment [6]. The molecule also showed an IC50 in experiment [7] of over 100 µM.
For the molecule `CC(C)Oc1ccc(-c2ccc3nc(N)sc3c2)cn1`, the 50% inhibitory concentration (IC50) was 0.0794 µM in experiment [1]; 1.26 µM in experiment [2]; 5.01 µM in experiment [3]; 31.6 µM in experiment [4]; 12.6 µM in experiment [5]; 12.6 µM in experiment [6]. Moreover, in experiment [7], the IC50 is over 100 µM.
Regarding `CCNc1ccc(-c2ccc3nc(N)sc3c2)cn1`, the IC50 in experiment [1] was 0.631 µM; in experiment [2] it was 1 µM; in experiment [3], 2 µM; in experiment [4], 12.6 µM; in experiment [5], 3.98 µM; in experiment [6] it was 6.31 µM. This molecule also had an IC50 in experiment [7] of 31.6 µM.
As for `CCN(C)c1ccc(-c2ccc3nc(N)sc3c2)cn1`, the IC50 in experiment [1] is 0.631 µM; in experiment [2], 1.58 µM; in experiment [3], 6.31 µM; in experiment [4] it was 39.8 µM; in experiment [5], 3.98 µM; in experiment [6] it was 12.6 µM. The molecule further had an IC50 in experiment [7] of over 100 µM.
In the case of `Cc1ccc(-c2ccc3nc(N)sc3c2)cn1`, the IC50 is 1.58 µM in experiment [1]; 0.501 µM in experiment [2]; 1 µM in experiment [3]; 2.51 µM in experiment [4]; 1.26 µM in experiment [5]; 1.26 µM in experiment [6]. The same molecule gave an IC50 in experiment [7] of over 100 µM.
For the molecule `Nc1nc2ccc(-c3ccc(C(F)(F)F)nc3)cc2s1`, the half-inhibitory concentration (IC50) in experiment [1] is 15.8 µM; in experiment [2] it was 1.58 µM; in experiment [3] it was 2 µM; in experiment [4], 3.98 µM; in experiment [5] it was 1 µM; in experiment [6] it was 1 µM. Also, the half-inhibitory concentration (IC50) in experiment [7] is over 100 µM.
As for `CS(=O)(=O)c1ccc(-c2ccc3nc(N)sc3c2)cn1`, the 50% inhibitory concentration (IC50) in experiment [1] is 25.1 µM; in experiment [2], 7.94 µM; in experiment [3], 158 µM; in experiment [4], 39.8 µM; in experiment [5], 10 µM; in experiment [6], 12.6 µM. In experiment [7], this molecule showed a concentration for half-maximal inhibition (IC50) of 10 µM.
With `Nc1nc2ccc(-c3ccc(OCCO)nc3)cc2s1`, the 50% inhibitory concentration (IC50) in experiment [1] is 0.316 µM; in experiment [2], 0.501 µM; in experiment [3] it was 1.26 µM; in experiment [4], 6.31 µM; in experiment [5], 1.26 µM; in experiment [6], 2 µM. In experiment [7], the IC50 was over 100 µM.
As to `COCCOc1ccc(-c2ccc3nc(N)sc3c2)cn1`, the IC50 in experiment [1] is 0.316 µM; in experiment [2], 1 µM; in experiment [3] it was 2.51 µM; in experiment [4], 7.94 µM; in experiment [5], 3.16 µM; in experiment [6] it was 6.31 µM. Also, the half-inhibitory concentration (IC50) in experiment [7] is over 100 µM.
With `Nc1nc2ccc(-c3ccn(CC4CC4)c(=O)c3)cc2s1`, the IC50 in experiment [1] is 0.00631 µM; in experiment [2], 1.58 µM; in experiment [3] it was 6.31 µM; in experiment [4], over 126 µM; in experiment [5] it was 1.58 µM; in experiment [6], 12.6 µM. The IC50 is over 79.4 µM in experiment [7] and 0.501 µM in experiment [8].
On to `O=c1cc(-c2ccc3nc(NCC4CCOCC4)sc3c2)ccn1CC1CC1`, for which the IC50 in experiment [1] is 0.00501 µM; in experiment [2] it was 0.398 µM; in experiment [3], over 200 µM; in experiment [4] it was over 200 µM; in experiment [5], 15.8 µM; in experiment [6] it was 100 µM. Besides, the IC50 was over 100 µM in experiment [7] and 0.794 µM in experiment [8].
Take `C[C@@H](Nc1nc2ccc(-c3ccn(CC4CC4)c(=O)c3)cc2s1)C1CCOCC1`: the IC50 was 0.00794 µM in experiment [1]; 0.316 µM in experiment [2]; over 200 µM in experiment [3]; over 200 µM in experiment [4]; 63.1 µM in experiment [5]; over 200 µM in experiment [6]. Besides, the IC50 in experiment [7] is over 100 µM; in experiment [8] it was 0.631 µM.
Regarding `C[C@H](Nc1nc2ccc(-c3ccn(CC4CC4)c(=O)c3)cc2s1)C1CCOCC1`, the half-maximal inhibitory concentration (IC50) in experiment [1] was 0.0398 µM; in experiment [2], 2.51 µM; in experiment [3], over 200 µM; in experiment [4], over 200 µM; in experiment [5], over 200 µM; in experiment [6], over 200 µM. Also, the IC50 in experiment [7] was 25.1 µM; in experiment [8], 7.94 µM.
As to `O=c1cc(-c2ccc3nc(NCC4CCS(=O)(=O)CC4)sc3c2)ccn1CC1CC1`, the IC50 in experiment [1] is 0.002 µM; in experiment [2], 0.631 µM; in experiment [3], 79.4 µM; in experiment [4], over 200 µM; in experiment [5], 50.1 µM; in experiment [6] it was over 200 µM. The half-inhibitory concentration (IC50) in experiment [7] is over 100 µM; in experiment [8] it was 0.631 µM.
`O=c1cc(-c2ccc3nc(NC[C@H]4CC[C@H](C(=O)O)CC4)sc3c2)ccn1CC1CC1`: the IC50 in experiment [1] was 0.001 µM; in experiment [2], 0.251 µM; in experiment [3] it was 100 µM; in experiment [4], over 200 µM; in experiment [5] it was 10 µM; in experiment [6], over 79.4 µM. Also, in experiment [8], the half-inhibitory concentration (IC50) was 0.316 µM.

By IC50 is commonly meant the concentration that inhibits the measured activity by half.
